“Also recorded” adds a separate entry of the source.
Experiments:
human 5-HT6R = human 5-HT6R (Homo sapiens, UniProt P50406); assay: 5-HT6R radioligand competitive binding assay ([3H]LSD)
5-HT6R N288A = target: T1, 5-HT6R N288A (Homo sapiens, UniProt P50406, N288A); assay: 5-HT6R AC assay (cAMP), N288A mutant; assay type: cell-based
T1 construct: host or cells: HEK-293

5-HT6R S193A = target: T2, 5-HT6R S193A (Homo sapiens, UniProt P50406, S193A); assay: 5-HT6R AC assay (cAMP), S193A mutant; assay type: cell-based
T2 construct: host or cells: HEK-293

5-HT6R F285A = target: T3, 5-HT6R F285A (Homo sapiens, UniProt P50406, F285A); assay: 5-HT6R AC assay (cAMP), F285A mutant; assay type: cell-based
T3 construct: host or cells: HEK-293

human 5-HT6R WT = target: T4, human 5-HT6R WT (Homo sapiens, UniProt P50406); assay: 5-HT6R AC assay (cAMP), wild type receptor; assay type: cell-based; conditions: for disappearance of the 5-HT induced response / functional character at the human 5-HT6R in the AC assay / increase in cAMP levels by ligand alone (agonist effect): HEK-293 cells expressing human 5-HT6R; for IC50: read-out: pIC50, inhibition of 5-HT-induced stimulation of cAMP (converted)
T4 construct: host or cells: HEK-293

5-HT6R C110A = target: T5, 5-HT6R C110A (Homo sapiens, UniProt P50406, C110A); assay: 5-HT6R AC assay (cAMP), C110A mutant; assay type: cell-based
T5 construct: host or cells: HEK-293

CYP2D6 = CYP2D6 (Homo sapiens, UniProt P10635); assay: Fluorescence-based CYP2D6 inhibition assay; assay type: in vitro ADME; conditions: human recombinant microsomal CYP2D6 enzyme, 30 min incubation, AMMC substrate, read-out: remaining activity of CYP2D6
Description: (§1) The high-affinity antagonist 7 was selected for the assessment of in vitro pharmacokinetic properties. Metabolic stability using rat and human liver microsomes (RLMs and HLMs, respectively) was determined as a measure of first-pass metabolism. Test compound was incubated at a concentration of 1 and 5 μM with RLM and HLM preparations, respectively. The half-life time (t1/2) was used to calculate the intrinsic clearance (CLint). […] An in vitro fluorescence-based inhibition assay was conducted with cytochrome P450 2D6 (CYP2D6), one of the most important enzymes involved in drug metabolism, using human recombinant microsomal CYP2D6 enzyme, AMMC {3-[2-(N,N-diethyl-N-methylamino)ethyl]-7-methoxy-4-methylcoumarin} as substrate, and quinidine as control inhibitor. After 30 min of incubation with compound 7 at a concentration of 10 μM, a remaining activity of 78% of the cytochrome was found.
(§2) RLM and HLM stability, HSA binding, and fluorescence-based CYP2D6 inhibition assays were performed according to previously reported procedures. Inhibition of hERG K^+ channel current was determined in an automated patch clamp assay using whole CHO-K1 cells at Eurofins Panlab (USA), according to previously published method.

[1] = target: T6, serotonin 5-HT2A receptor (Homo sapiens, UniProt P28223); assay: Selectivity panel radioligand binding, 5-HT2A; conditions: [3H]ketanserin (0.5 nM), 60 min, RT, read-out: Inhibition (%) (displacement of radioligand)
T6 construct: Eurofins Cerep (France)

[2] = Metabolic stability in human liver microsomes; assay type: in vitro ADME; conditions: HLMs, compound at 5 μM
Description: as §1, §2

[3] = tested on: rats (time-induced memory deficit); assay: Novel object recognition task (NORT); assay type: in vivo, rat; conditions: male Wistar rats, 60 min before each session
[4] = Parallel artificial membrane permeability assay (PAMPA); assay type: in vitro ADME; conditions: PBS pH 7.4, 25 °C, read-out: permeability value (P)
[5] = target: human serum albumin (HSA) (Homo sapiens, UniProt P02768); assay: HSA binding; assay type: in vitro ADME; conditions: 5 μM
hERG K+ channel = target: T7, hERG K+ channel (Homo sapiens, UniProt Q12809); assay: hERG whole-cell patch clamp assay; assay type: cell-based; conditions: CHO-K1 cells, n = 3, read-out: IC50, blockade of hERG K+ channel current
T7 construct: host or cells: CHO-K1

[6] = Metabolic stability in rat liver microsomes; assay type: in vitro ADME
Description: as §1, §2

[7] = target: T8, serotonin 5-HT2B receptor (Homo sapiens, UniProt P41595); assay: Selectivity panel radioligand binding, 5-HT2B; conditions: [3H]mesulergine, 60 min, RT, read-out: Inhibition (%) (displacement of radioligand)
T8 construct: Eurofins Cerep (France)

[8] = read-out: pIC50, inhibition of 5-HT-induced stimulation of cAMP (converted)

T4 sequence (P50406 whole entry): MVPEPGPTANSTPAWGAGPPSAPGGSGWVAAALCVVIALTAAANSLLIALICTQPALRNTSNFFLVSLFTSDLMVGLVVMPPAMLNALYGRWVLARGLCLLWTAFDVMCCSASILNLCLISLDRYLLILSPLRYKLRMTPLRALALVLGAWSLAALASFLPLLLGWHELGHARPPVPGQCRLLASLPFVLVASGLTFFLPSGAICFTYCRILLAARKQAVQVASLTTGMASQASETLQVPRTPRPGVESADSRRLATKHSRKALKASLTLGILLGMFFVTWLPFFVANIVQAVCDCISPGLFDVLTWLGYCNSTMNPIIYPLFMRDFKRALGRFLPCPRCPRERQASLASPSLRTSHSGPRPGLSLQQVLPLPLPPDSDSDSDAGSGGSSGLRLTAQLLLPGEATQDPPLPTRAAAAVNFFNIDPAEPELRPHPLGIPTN
human 5-HT6R, sequence (P50406 whole entry): as above
T5 sequence (P50406 whole entry C110A): as the sequence (P50406 whole entry) above, with C110A counted along it
T3 sequence (P50406 whole entry F285A): as the sequence (P50406 whole entry) above, with F285A counted along it
T2 sequence (P50406 whole entry S193A): as the sequence (P50406 whole entry) above, with S193A counted along it
T1 sequence (P50406 whole entry N288A): as the sequence (P50406 whole entry) above, with N288A counted along it
human serum albumin (HSA), sequence (P02768 25-609): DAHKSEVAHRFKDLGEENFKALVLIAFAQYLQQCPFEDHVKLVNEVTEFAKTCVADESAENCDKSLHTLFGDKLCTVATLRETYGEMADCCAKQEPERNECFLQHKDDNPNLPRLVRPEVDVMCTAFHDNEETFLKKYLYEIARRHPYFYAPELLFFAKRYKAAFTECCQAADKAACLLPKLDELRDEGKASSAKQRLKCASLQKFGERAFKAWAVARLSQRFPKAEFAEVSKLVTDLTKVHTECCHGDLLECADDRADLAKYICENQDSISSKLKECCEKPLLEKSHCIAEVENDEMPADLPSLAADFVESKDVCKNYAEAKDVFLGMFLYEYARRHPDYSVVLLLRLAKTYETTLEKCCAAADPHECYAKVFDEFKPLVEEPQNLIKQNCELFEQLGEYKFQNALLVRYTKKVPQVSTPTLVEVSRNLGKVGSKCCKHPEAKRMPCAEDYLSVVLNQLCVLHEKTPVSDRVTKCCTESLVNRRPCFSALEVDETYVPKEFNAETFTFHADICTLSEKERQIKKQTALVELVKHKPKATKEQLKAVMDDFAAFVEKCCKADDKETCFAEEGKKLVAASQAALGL
T7 sequence (Q12809 whole entry): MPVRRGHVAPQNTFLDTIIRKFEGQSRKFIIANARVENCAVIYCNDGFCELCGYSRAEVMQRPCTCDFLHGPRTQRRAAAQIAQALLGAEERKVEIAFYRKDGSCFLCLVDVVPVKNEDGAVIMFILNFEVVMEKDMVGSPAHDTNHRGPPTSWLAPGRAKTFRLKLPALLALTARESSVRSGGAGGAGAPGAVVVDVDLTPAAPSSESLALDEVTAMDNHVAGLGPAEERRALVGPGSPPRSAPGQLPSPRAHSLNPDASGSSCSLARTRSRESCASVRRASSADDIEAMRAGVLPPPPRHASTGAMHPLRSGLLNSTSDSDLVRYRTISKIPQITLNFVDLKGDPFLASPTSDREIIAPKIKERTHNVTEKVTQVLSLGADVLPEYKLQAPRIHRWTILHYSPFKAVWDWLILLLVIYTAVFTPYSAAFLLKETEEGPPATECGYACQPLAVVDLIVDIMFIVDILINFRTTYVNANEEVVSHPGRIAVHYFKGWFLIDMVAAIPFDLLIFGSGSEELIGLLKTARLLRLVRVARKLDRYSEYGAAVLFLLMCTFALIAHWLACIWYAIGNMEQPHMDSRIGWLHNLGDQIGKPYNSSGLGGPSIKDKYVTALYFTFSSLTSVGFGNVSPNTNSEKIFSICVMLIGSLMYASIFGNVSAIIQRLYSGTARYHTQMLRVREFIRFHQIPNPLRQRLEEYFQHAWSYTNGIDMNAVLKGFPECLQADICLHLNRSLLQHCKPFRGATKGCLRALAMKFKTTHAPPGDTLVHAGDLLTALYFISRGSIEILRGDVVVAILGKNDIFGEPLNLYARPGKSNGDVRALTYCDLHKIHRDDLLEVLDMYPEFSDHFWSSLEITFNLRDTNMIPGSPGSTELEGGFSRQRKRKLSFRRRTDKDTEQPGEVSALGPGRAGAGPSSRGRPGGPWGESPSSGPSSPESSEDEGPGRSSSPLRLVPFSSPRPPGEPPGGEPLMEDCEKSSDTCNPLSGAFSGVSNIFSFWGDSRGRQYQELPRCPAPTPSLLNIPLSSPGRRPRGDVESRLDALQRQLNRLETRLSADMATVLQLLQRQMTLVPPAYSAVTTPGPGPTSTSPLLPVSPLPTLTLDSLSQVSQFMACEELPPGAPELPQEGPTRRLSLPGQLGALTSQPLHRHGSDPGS
T8 sequence (P41595 whole entry): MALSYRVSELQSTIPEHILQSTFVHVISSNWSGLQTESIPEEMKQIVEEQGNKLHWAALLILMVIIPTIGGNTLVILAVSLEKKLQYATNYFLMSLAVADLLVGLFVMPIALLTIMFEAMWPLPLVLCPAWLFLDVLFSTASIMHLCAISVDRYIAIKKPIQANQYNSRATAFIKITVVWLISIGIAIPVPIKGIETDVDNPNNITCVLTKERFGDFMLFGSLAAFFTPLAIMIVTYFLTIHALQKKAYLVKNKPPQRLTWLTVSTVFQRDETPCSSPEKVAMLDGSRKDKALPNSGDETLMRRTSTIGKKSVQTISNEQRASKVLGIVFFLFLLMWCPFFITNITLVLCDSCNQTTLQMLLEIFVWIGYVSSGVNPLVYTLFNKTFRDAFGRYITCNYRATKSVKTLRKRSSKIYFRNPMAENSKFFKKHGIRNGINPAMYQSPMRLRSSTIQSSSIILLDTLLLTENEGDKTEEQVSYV
CYP2D6, sequence (P10635 whole entry): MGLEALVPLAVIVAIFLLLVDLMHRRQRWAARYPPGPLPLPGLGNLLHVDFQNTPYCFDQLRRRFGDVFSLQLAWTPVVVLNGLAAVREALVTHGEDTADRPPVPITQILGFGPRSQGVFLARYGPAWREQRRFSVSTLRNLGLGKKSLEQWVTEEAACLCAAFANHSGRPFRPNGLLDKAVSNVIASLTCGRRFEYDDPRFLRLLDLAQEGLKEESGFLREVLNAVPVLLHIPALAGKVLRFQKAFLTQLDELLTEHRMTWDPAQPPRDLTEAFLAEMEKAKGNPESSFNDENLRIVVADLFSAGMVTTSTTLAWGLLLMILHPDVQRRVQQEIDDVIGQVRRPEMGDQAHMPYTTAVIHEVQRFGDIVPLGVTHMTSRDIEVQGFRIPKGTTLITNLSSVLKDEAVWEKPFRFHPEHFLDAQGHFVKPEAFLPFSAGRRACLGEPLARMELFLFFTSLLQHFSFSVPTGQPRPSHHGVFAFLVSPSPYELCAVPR
T6 sequence (P28223 whole entry): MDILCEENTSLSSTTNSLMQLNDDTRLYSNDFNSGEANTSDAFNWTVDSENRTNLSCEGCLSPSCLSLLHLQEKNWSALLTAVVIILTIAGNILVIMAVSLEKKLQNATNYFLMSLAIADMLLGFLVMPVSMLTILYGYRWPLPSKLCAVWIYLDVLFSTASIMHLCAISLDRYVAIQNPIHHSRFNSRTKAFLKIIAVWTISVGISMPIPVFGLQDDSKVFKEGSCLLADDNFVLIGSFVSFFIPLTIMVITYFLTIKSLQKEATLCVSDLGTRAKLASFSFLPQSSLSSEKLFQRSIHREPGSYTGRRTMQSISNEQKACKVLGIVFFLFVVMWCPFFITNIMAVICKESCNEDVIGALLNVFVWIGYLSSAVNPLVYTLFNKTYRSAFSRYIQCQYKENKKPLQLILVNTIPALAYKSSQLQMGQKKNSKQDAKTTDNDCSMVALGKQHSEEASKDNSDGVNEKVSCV

| Structure (SMILES) | Ki (human 5-HT6R) [nM] | melting point | also measured |
| --- | --- | --- | --- |
| CN(C)CCn1cnc2c(NS(=O)(=O)c3ccccc3)cccc21 [Compound 2] | 243 ± 15 | 121 to 123 °C |  |
| CN(C)CCn1cnc2cc(NS(=O)(=O)c3ccccc3)ccc21 [Compound 3] | 213 ± 8 | 178 to 180 °C |  |
| CN(C)CCn1cnc2ccc(NS(=O)(=O)c3ccccc3)cc21 [Compound 4] | 200 ± 10 | 138 to 140 °C |  |
| NCCc1c[nH]c2ccc(O)cc12 [Compound 5-HT, 5-HT] |  |  | cAMP release (5-HT) Efficacy (5-HT6R N288A; 5-HT6R N288A): agonist; cAMP release (5-HT) Efficacy (5-HT6R S193A; 5-HT6R S193A): agonist; cAMP release (5-HT) Efficacy (5-HT6R F285A; 5-HT6R F285A): agonist; cAMP release (5-HT) Efficacy (human 5-HT6R WT; 5-HT6R WT): agonist; cAMP release (5-HT) Efficacy (5-HT6R C110A; 5-HT6R C110A): agonist |
| CN(C)CCn1cnc2c(NS(=O)(=O)c3ccc4c(Cl)cccc4c3)cccc21 [Compound 5] | 64 | 76 to 78 °C |  |
| CN(C)CCn1cnc2cc(NS(=O)(=O)c3ccc4c(Cl)cccc4c3)ccc21 [Compound 6] | 112 | 92 to 95 °C |  |
| CN(C)CCn1cnc2ccc(NS(=O)(=O)c3ccc4c(Cl)cccc4c3)cc21 [Compound 7, 5-Chloro-N-{1-[2-(dimethylamino)ethyl]-1H-benzimidazol-6-yl}naphthalene-2-sulfonamide] | 9 |  | IC50 (5-HT6R N288A; [8]): 126 nM; activity at 30 min, 10 µM (CYP2D6): 78%; inhibition at 1 µM [1]: < 23%; CLint scaled at 5 μM ([2]; calculated from t1/2, read-out: intrinsic clearance (CLint)): 8 mL/min/kg; half-life at 5 μM ([2]; read-out: half-life time (t1/2)): 77.5 min; IC50 (5-HT6R S193A; [8]): 1260 nM; IC50 (5-HT6R F285A; [8]): ~31600 nM; effect on time-induced memory deficit in NORT (exploration of novel vs familiar object) ([3]; 1 mg/kg, ip, 1 mg/kg): in vivo procognitive activity; also recorded: animals spent more time exploring the novel object than the familiar one; also recorded: significant reversal of the time-delay induced memory deficit; Papp at 5 h, 200 μM [4]: 12 ×10⁻⁶ cm/s; binding to HSA [5]: 70%; IC50 (hERG K+ channel): > 10000 nM; disappearance of the 5-HT induced response (human 5-HT6R WT): ≥ 95%; functional character at the human 5-HT6R in the AC assay (human 5-HT6R WT): antagonists; increase in cAMP levels by ligand alone (agonist effect) (human 5-HT6R WT): did not induce a substantial increase in cAMP levels; IC50 (human 5-HT6R WT): 15.8 nM; IC50 (5-HT6R C110A; [8]): 158 nM; half-life at 1 μM ([6]; RLMs, compound at 1 μM, read-out: half-life time (t1/2)): 20.7 min; CLint scaled at 1 μM ([6]; read-out: intrinsic clearance (CLint)): 67.8 mL/min/kg; inhibition at 1 µM [7]: 16% |
| Cc1c(S(=O)(=O)Nc2cccc3c2ncn3CCN(C)C)sc2ccc(Cl)cc12 [Compound 8] | 89 | 90 to 93 °C |  |
| Cc1c(S(=O)(=O)Nc2ccc3c(c2)ncn3CCN(C)C)sc2ccc(Cl)cc12 [Compound 9] | 245 | 90 to 93 °C |  |
| Cc1c(S(=O)(=O)Nc2ccc3ncn(CCN(C)C)c3c2)sc2ccc(Cl)cc12 [Compound 10] | 25 | 114 to 115 °C | disappearance of the 5-HT induced response (human 5-HT6R WT): ≥ 95%; functional character at the human 5-HT6R in the AC assay (human 5-HT6R WT): antagonists; increase in cAMP levels by ligand alone (agonist effect) (human 5-HT6R WT): did not induce a substantial increase in cAMP levels; IC50 (human 5-HT6R WT): 50.1 nM |
| CN(C)CCn1cnc2c(NS(=O)(=O)c3c(Cl)nc4sccn34)cccc21 [Compound 11] | 200 ± 13 | 71 to 74 °C |  |
| CN(C)CCn1cnc2cc(NS(=O)(=O)c3c(Cl)nc4sccn34)ccc21 [Compound 12] | 33 ± 3 | 99 to 101 °C |  |
| CN(C)CCn1cnc2ccc(NS(=O)(=O)c3c(Cl)nc4sccn34)cc21 [Compound 13] | 182 ± 6 | 139 to 141 °C |  |
| CN(C)CCn1cnc2ccc(NS(=O)(=O)c3ccc4cc(Cl)ccc4c3)cc21 [Compound 14] | > 500 | 181 °C (dec.) |  |
| CN(C)CCn1cnc2ccc(NS(=O)(=O)c3cccc4c(Cl)cccc34)cc21 [Compound 15] | 238 | 223 °C (dec.) |  |
| CN(C)CCn1cnc2ccc(NS(=O)(=O)c3ccc4c(Br)cccc4c3)cc21 [Compound 16] | 12 |  |  |
| Cc1c(S(=O)(=O)Nc2ccc3ncn(CCN(C)C)c3c2)sc2ccc(Br)cc12 [Compound 17] | 37 |  |  |
| CN(C)CCn1cnc2ccc(NS(=O)(=O)c3ccc4ccccc4c3)cc21 [Compound 18] | 144 | 207 to 208 °C |  |
| Cc1c(S(=O)(=O)Nc2ccc3ncn(CCN(C)C)c3c2)sc2ccccc12 [Compound 19] | 195 | 175 to 176 °C |  |
| CN(C)CCCn1cnc2c(C(=O)Nc3ccccc3)cccc21 [Compound S1] | > 500 | 104 to 106 °C |  |
| CN(C)CCCn1cnc2cc(C(=O)Nc3ccccc3)ccc21 [Compound S2] | > 500 | 108 to 110 °C |  |
| CN(C)CCn1cnc2c(NC(=O)c3ccccc3)cccc21 [Compound S7] | > 500 | 109 to 112 °C |  |
| CN(C)CCn1cnc2cc(NC(=O)c3ccccc3)ccc21 [Compound S8] | > 500 | 113 to 115 °C |  |
| CN(C)CCn1cnc2ccc(NC(=O)c3ccccc3)cc21 [Compound S9] | > 500 | 115 to 117 °C |  |
| CN(C)CCn1cnc2cccc(NC(=O)c3ccccc3)c21 [Compound S10] | > 500 | 98 to 101 °C |  |
| CN(C)CCn1cnc2cccc(NS(=O)(=O)c3ccccc3)c21 [Compound S11] | > 500 | 142 to 145 °C |  |
| CC(C)NCC(O)COc1cccc2ccccc12 (centres unmarked) [propranolol, reference compound] |  |  | Papp at 5 h, 200 μM [4]: 25 ×10⁻⁶ cm/s |
| Nc1c2c(nc3ccccc13)CCCC2 [tacrine, reference compound] |  |  | effect on time-induced memory deficit in NORT (exploration of novel vs familiar object) ([3]; 0.5 mg/kg, po): animals spent more time exploring the novel object than the familiar one |
